This note sets out measurements from patent US12285512B2, “Composition comprising allulose as active ingredient for skin whitening” (CJ CHEILJEDANG CORPORATION, priority 2018, dated 2025).

Assay [1] has as its system Murine melanocytes. The assay is described as follows: Inhibitory effect on melanogenesis: intracellular melanin (OD405) in a-MSH-treated murine melanocytes. The format is cell-based. Conditions: 50 μM a-MSH, 72 hours, FIG. 1. On the procedure: Murine melanocytes were seeded on each 6-well plate at 1×10^4 cells/well. In a sample treatment group 24 hours after the seeding, cells were treated with allulose (CJ CheilJedang, 98% or higher purity) at a concentration of 0.01 wt %, 0.1 wt %, and 1 wt %. In a positive control group, cells were treated with arbutin at 0.02 wt %. A comparative group was treated with 1 wt % of glucose (Sigma Aldrich) or 1 wt % of fructose (Sigma Aldrich). An untreated group (control) was not treated with a sample, or a-MSH inducing melanin production. The sample treatment group, the positive control group, the comparative group, and the negative control group were treated with 50 μM of a-MSH. After 72 hours of treatment, cells were recovered and lysed with NaOH to detect intracellular melanin. The absorbances (OD405) of the untreated group, the negative control group (treated with only a-MSH), the sample treatment group (treated with a-MSH and each sample by concentration), and the positive control group (treated with a-MSH and arbutin) were measured.

Assay [2] relates to tyrosinase from mushroom. Description: Polyphenol oxidase (tyrosinase from mushroom) activity, catechol substrate, absorbance at 420 nm. In kind it is biochemical. The note with it: 50 mM sample, 30 mM catechol substrate, pH 6.5; FIG. 2. On the procedure: (§1) An enzyme solution was prepared by dissolving 0.2 mg/ml of tyrosinase from mushroom (25 KU, 2687 units/mg solid) in 50 mM sodium phosphate buffer (pH 6.5). […] As a substrate, 30 mM catechol, an enzyme solution, and 100 mM sodium phosphate buffer (pH 6.5) were mixed so that the mixing ratio of catechol:enzyme solution:sodium phosphate buffer was 5:1:4. […] As a co-sample solution, DW was added instead of the enzyme solution. After mixing, absorbance was measured at 420 nm.

The subject of assay [3] is tyrosinase from mushroom. Description: Quantitative LC analysis of substrate (catechol) in the tyrosinase enzyme reactant. The note with it: 50 mM sample; for Reduction rate of catechol compared to initial stage of reaction: 0 to 60 min, D.W. control 8.2%; for Reduction rate of catechol compared to initial stage of reaction / amount of catechol in the enzyme reactant: 37° C.; for tyrosinase activity (from catechol consumption, Table 2): LC quantification of catechol. In kind it is biochemical. On the procedure:
as §1
A catechol standard preparation was diluted according to concentration, and then was subjected to LC analysis to obtain a standard curve of the catechol. 200 μl of each enzyme reaction solution obtained in Experimental Example 2-1 above was added into a PCR tube, and was reacted at 37° C. for 0 minutes (an enzyme reaction product in which the enzyme was inactivated by heating each enzyme reaction solution for 10 minutes), 10 minutes, 20 minutes, 30 minutes, and 60 minutes to prepare an enzyme reactant for each reaction time. The reaction was stopped using a heat block. The reaction was stopped according to the planned time and heated in a heat block at 105° C. for 10 minutes, and then put in ice and cooled for 10 minutes. The PCR tube was centrifuged twice using a centrifuge. LC analysis was carried out by a typical analytical method. The enzyme reactant was filtered with a 1-ml syringe. The filtered enzyme reactant was injected into an insert, and was subjected to LC analysis. The amount of catechol in the enzyme reactant was measured according to the standard curve, which is obtained in advance, for quantifying catechol.

The mark [4] stands for this setting: reaction time 0 min (enzyme inactivated by heating).

Entries after “also recorded” stand apart in the source; their conditions may differ.

For the compound `O=C(CO)C(O)C(O)C(O)CO` (centres unmarked) [allulose], the “melanogenesis (intracellular melanin, OD405)” value in assay [1] (1 wt % of sample) was “inhibit melanogenesis; also recorded: melanogenesis was significantly inhibited”; in assay [1] (allulose-treated group (0.01, 0.1 and 1 wt %)) it was “melanogenesis was suppressed”. Besides, in assay [2], the “tyrosinase activity (absorbance at 420 nm)” value is “tyrosinase activity was inhibited”. Moreover, in assay [3], the “Reduction rate of catechol compared to initial stage of reaction” value (“Reduction rate of catechol” below) was found to be 6.1%. Moreover, in assay [3], the “tyrosinase activity (from catechol consumption, Table 2)” value is “tyrosinase activity was inhibited”. Besides, the entries for the “amount of catechol in the enzyme reactant” value (from here on “amount of catechol”) in assay [3] (setting [4]), in assay [3] (reaction time 30 min) and in assay [3] (reaction time 60 min) were 3288.7 ppm, 3126.7 ppm and 3087.0 ppm, respectively.

Turning to `O=C(CO)[C@@H](O)[C@H](O)[C@H](O)CO` [fructose], the “melanogenesis (intracellular melanin, OD405)” value in assay [1] (1 wt % of sample) was “melanogenesis was not inhibited at all”. Moreover, the “tyrosinase activity (absorbance at 420 nm)” value in assay [2] is reported as “not inhibited at all”. The “Reduction rate of catechol” value in assay [3] came out at 8.2%. Besides, in assay [3], the “tyrosinase activity (from catechol consumption, Table 2)” value is “not inhibited at all”. The “amount of catechol” value is recorded as 3236.0 ppm in assay [3] (setting [4]), 3069.0 ppm in assay [3] (reaction time 30 min) and 2971.0 ppm in assay [3] (reaction time 60 min).

In the case of `OC[C@H]1O[C@@](CO)(O[C@H]2O[C@H](CO)[C@@H](O)[C@H](O)[C@H]2O)[C@@H](O)[C@@H]1O` [Comparative Example 1, sucrose], in assay [3], the “Reduction rate of catechol” value is recorded as 8.1%. In addition, the “tyrosinase activity (from catechol consumption, Table 2)” value in assay [3] was “not inhibited at all”. Moreover, the “amount of catechol” value in assay [3] (setting [4]) worked out at 3296.7 ppm; in assay [3] (reaction time 30 min), 3112.0 ppm; in assay [3] (reaction time 60 min) it was 3031.0 ppm.
